Measured values from ChEMBL document CHEMBL1138903, “Secondary amides of sulfonylated 3-amidinophenylalanine. New potent and selective inhibitors of matriptase” (J Med Chem, 2006).

Experiments:
[1] = target: Urokinase-type plasminogen activator (Homo sapiens, UniProt P00749); test: Inhibition of uPA
Prothrombin [2] = target: T1, Prothrombin (Homo sapiens, UniProt P00734); test: Inhibition of thrombin
[3] = target: T2, Suppressor of tumorigenicity 14 protein (Homo sapiens, UniProt Q9Y5Y6)
T2 sequence (Q9Y5Y6 whole entry): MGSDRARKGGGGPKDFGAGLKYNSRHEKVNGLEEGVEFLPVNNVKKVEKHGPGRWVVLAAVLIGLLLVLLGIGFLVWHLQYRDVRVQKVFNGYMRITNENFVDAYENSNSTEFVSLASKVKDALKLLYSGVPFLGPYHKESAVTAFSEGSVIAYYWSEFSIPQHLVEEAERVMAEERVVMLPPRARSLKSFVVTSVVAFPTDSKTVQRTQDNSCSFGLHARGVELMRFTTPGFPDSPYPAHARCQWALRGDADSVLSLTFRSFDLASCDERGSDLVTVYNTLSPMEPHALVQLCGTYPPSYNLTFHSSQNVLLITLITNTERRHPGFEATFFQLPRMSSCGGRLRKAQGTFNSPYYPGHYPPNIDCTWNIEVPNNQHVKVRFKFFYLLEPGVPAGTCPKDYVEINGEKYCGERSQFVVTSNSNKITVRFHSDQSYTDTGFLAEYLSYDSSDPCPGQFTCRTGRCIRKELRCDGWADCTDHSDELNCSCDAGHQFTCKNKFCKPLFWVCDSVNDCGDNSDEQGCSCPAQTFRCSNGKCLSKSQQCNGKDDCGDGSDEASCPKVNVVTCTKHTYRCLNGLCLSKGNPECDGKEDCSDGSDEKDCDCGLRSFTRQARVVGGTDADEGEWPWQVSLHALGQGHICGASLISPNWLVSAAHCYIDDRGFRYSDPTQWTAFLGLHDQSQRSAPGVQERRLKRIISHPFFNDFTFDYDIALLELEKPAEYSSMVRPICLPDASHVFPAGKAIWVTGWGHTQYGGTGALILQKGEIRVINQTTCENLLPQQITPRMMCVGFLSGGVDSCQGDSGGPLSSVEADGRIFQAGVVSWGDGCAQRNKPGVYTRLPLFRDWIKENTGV

Coagulation factor X = Coagulation factor X (Homo sapiens, UniProt P00742); test: Inhibition of f10a
Chain of Coagulation factor X (P00742 41-179 limits assumed): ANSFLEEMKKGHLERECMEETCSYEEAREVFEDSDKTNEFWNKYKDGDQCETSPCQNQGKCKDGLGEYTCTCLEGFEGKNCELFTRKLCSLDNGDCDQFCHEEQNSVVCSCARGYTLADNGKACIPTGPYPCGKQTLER
Chain of Coagulation factor X (P00742 235-488 limits assumed): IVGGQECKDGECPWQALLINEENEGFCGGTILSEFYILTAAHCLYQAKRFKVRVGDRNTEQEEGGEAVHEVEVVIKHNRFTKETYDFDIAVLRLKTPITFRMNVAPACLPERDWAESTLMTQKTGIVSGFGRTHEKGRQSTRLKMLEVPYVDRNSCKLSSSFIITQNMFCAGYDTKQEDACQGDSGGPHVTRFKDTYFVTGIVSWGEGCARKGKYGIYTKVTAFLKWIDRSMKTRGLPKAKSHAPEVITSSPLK

[4] = target: T2, Suppressor of tumorigenicity 14 protein; test: Reduction of matriptase-catalyzed pro-HGF to HGF processing; type: functional
Plasminogen = Plasminogen (Homo sapiens, UniProt P00747); test: Inhibition of plasmin
Chain of Plasminogen (P00747 97-580 limits assumed): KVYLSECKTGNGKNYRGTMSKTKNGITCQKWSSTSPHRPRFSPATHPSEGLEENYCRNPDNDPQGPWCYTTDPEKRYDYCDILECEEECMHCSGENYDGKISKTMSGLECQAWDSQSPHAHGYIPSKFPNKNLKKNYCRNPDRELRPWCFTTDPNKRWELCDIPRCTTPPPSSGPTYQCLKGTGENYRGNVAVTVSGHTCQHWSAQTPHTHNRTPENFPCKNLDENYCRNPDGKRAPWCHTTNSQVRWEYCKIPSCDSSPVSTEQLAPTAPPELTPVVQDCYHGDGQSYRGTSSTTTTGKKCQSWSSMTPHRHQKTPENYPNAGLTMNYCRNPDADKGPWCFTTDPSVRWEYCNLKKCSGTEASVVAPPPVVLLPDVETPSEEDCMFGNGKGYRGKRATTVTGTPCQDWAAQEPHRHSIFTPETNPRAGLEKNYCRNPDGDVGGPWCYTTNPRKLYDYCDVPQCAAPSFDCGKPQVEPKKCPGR
Chain of Plasminogen (P00747 581-810 limits assumed): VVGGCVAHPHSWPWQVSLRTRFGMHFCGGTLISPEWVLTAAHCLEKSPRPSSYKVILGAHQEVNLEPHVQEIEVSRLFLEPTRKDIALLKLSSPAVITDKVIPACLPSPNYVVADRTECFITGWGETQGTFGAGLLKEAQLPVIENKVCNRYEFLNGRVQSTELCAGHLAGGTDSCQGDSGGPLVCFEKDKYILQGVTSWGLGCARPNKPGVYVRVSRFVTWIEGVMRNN

[5] = target: Coagulation factor VII/tissue factor (Homo sapiens) (UniProt P08709+P13726); conditions: Blood
Description: Anticoagulant activity in blood by PT assay

[6] = Anticoagulant activity in blood by aPTT assay; type: functional, Homo sapiens
Prothrombin [7] = target: T1, Prothrombin; conditions: Blood
PC-3 [8] = test: Reduction of dissemination into thorax in nude mouse xenografted with PC3 cell line at 5 mg/kg, ip; type: functional; design: scale not given: the % may be the effect or the level left; conditions: route intraperitoneal
PC-3 [9] = test: Reduction of median primary tumor growth of PC3 cell line xenografted in nude mouse at 5 mg/kg, ip; type: functional, Homo sapiens; design: scale not given: the % may be the effect or the level left; conditions: route intraperitoneal

Row | Compound | Ki [1] | Ki (Prothrombin [2]) | Ki [3] | Ki (Coagulation factor X) | IC50 [4] | Ki (Plasminogen) | IC200 [5] | IC200 [6] | IC200 (Prothrombin [7]) | Activity (PC-3 [8]) | Activity (PC-3 [9])
1 | N=C(N)c1cccc(C[C@H](NS(=O)(=O)c2ccc(C3CCCCC3)cc2)C(=O)N2CCN(C(=N)N)CC2)c1 | 8.2 µM | 1.7 µM | 0.026 µM | 1.3 µM | 3 µM | 3.1 µM | – | – | – | – | –
2 | N=C(N)NCCC1CCN(C(=O)[C@H](Cc2cccc(C(=N)N)c2)NS(=O)(=O)c2ccc3ccccc3c2)CC1 | 1.3 µM | 0.11 µM | – | 27 µM | – | 20 µM | 3.8 µM | 2.7 µM | 0.32 µM | 53% | 17%
3 | N=C(N)c1cccc(C[C@H](NS(=O)(=O)c2cccc(NC(=O)CCN)c2)C(=O)N2CCC(CCN)CC2)c1 | 3.6 µM | 27 µM | 0.0066 µM | 21 µM | – | 2.4 µM | > 10 µM | >10 µM | > 10 µM | 33% | 40%
